Results on five compounds are retold here after ChEMBL document CHEMBL1201862, “PubChem BioAssay data set” (2004).

Active and inactive are the calls of the source. Bounds are passed on as bounds.

For test [1], the target named is Scavenger receptor class B member 1 (Mus musculus, UniProt Q61009). The test is described as follows: mouse SR-BI DiI-HDL uptake blockers – ldlA[mSR-BI] cells, fluorescence, cherry pick, dose response (AID 493194).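 Note: cellular uptake of fluorescent DiI-labeled HDL measured as cell fluorescence.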 Type of test: functional, cell-based.
Scavenger receptor class B member 1, sequence (Q61009 whole entry): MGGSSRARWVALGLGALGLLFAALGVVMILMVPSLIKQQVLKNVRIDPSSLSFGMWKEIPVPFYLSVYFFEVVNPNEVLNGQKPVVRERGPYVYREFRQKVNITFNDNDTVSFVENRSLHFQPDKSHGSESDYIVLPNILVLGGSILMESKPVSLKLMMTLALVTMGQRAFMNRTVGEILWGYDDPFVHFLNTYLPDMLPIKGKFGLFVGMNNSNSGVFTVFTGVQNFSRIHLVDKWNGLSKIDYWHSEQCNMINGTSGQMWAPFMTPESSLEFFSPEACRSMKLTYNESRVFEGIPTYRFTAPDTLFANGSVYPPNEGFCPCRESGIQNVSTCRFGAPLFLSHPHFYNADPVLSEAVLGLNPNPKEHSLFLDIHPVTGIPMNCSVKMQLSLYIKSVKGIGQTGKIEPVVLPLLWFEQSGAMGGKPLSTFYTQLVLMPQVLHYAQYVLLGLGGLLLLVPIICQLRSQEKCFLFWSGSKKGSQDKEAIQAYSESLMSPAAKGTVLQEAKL
The target in another test is Tumor necrosis factor (Homo sapiens, UniProt P01375). The test is described as follows: analog potency on TNFa NF-kB signaling – cell-based, revised, SAR follow-up (AID 2337). The format is functional.
Tumor necrosis factor, sequence (P01375 whole entry, the tested form may be a part): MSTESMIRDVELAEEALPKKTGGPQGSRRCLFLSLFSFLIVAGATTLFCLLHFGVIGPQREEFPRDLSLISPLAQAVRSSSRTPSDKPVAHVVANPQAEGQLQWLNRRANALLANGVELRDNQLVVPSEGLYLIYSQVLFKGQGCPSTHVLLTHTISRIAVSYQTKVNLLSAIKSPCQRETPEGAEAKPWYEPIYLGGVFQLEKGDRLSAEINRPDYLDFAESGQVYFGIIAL
Test [2] concerns the target T1, Nucleotide-binding oligomerization domain-containing protein 1 (Homo sapiens, UniProt Q9Y239).
T1 sequence (Q9Y239 whole entry): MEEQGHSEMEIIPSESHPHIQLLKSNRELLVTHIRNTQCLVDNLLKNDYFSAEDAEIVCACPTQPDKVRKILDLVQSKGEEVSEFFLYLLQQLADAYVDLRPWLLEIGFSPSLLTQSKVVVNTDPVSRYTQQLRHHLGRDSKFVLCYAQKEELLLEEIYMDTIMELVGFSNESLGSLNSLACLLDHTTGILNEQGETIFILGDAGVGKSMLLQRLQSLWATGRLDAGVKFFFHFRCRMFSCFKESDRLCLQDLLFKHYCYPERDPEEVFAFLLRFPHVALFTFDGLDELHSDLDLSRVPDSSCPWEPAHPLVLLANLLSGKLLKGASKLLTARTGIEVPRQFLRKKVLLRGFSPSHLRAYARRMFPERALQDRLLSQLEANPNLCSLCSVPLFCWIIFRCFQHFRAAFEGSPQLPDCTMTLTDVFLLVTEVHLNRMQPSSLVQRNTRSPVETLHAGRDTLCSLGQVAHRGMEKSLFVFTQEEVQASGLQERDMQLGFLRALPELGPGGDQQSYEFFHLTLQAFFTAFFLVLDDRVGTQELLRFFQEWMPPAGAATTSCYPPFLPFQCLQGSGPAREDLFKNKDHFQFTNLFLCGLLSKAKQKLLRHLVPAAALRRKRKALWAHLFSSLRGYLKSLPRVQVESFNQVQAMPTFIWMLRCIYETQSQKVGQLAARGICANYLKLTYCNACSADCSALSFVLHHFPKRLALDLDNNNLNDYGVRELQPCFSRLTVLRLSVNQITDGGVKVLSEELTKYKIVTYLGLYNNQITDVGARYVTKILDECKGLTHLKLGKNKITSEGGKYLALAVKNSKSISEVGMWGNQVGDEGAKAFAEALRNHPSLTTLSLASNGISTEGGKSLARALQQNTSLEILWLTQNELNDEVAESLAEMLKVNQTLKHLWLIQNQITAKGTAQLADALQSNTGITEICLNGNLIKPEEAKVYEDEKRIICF
The test is described as follows: blockers of NOD1 pathway activity – revised, SAR follow-up (AID 2333). The format is functional.

The target of test [3] is Nucleotide-binding oligomerization domain-containing protein 2 (Homo sapiens, UniProt Q9HC29). The test is described as follows: PubChem AID 2334. The format is functional.
The test system of test [4] is HEK293. The test is described as follows: cells. Conditions: Homo sapiens.
Another test addresses Large T antigen (Simian virus 40, UniProt P03070). The format is functional, Betapolyomavirus macacae.
For test [5], the target named is Induced myeloid leukemia cell differentiation protein Mcl-1 (Homo sapiens, UniProt Q07820). Type of test: functional.
Induced myeloid leukemia cell differentiation protein Mcl-1, sequence (Q07820 whole entry): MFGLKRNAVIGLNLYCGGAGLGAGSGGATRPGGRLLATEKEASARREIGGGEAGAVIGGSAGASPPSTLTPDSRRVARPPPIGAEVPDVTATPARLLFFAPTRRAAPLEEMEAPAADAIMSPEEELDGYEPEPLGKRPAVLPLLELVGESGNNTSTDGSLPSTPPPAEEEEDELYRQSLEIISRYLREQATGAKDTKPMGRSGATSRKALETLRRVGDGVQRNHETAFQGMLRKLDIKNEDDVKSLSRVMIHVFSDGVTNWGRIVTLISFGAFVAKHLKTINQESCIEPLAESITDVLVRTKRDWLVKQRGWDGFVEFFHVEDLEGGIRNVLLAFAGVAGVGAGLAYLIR
The target in test [6] is Intestinal-type alkaline phosphatase (Homo sapiens, UniProt P09923). The test is described as follows: Dose Response confirmation of uHTS hits from a small molecule inhibitors of human intestinal alkaline phosphatase via a luminescent assay. [Related pubchem assays (depositor defined):AID2544, AID2574]. The format is functional.
Intestinal-type alkaline phosphatase, sequence (P09923 whole entry): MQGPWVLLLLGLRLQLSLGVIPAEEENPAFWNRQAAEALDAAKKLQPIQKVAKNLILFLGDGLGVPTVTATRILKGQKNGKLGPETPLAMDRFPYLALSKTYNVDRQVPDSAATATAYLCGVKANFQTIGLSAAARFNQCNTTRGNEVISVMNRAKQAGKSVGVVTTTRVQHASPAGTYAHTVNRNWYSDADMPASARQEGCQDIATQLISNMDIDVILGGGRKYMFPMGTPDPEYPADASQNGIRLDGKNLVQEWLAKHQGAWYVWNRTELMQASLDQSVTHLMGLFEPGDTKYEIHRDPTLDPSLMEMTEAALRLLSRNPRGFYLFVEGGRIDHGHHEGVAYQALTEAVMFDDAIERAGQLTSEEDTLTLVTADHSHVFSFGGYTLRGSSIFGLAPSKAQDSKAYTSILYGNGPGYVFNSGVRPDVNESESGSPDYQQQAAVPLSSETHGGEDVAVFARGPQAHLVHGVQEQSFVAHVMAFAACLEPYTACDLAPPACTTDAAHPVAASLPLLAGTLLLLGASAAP
The target in the next test is Albumin (Bos taurus, UniProt P02769). The test is described as follows: Counterscreen for inhibitors of T-cell receptor (TCR)-CD3 interaction: Fluorescence-based biochemical high throughput dose response assay to identify inhibitors of T-cell receptor (TCR)-CD3 interaction using a TAMRA-labeled BSA probe. Type of test: functional. On the technique in general: The purpose of a counterscreen is to sort out artefacts and off-target activity.
Albumin, sequence (P02769 whole entry): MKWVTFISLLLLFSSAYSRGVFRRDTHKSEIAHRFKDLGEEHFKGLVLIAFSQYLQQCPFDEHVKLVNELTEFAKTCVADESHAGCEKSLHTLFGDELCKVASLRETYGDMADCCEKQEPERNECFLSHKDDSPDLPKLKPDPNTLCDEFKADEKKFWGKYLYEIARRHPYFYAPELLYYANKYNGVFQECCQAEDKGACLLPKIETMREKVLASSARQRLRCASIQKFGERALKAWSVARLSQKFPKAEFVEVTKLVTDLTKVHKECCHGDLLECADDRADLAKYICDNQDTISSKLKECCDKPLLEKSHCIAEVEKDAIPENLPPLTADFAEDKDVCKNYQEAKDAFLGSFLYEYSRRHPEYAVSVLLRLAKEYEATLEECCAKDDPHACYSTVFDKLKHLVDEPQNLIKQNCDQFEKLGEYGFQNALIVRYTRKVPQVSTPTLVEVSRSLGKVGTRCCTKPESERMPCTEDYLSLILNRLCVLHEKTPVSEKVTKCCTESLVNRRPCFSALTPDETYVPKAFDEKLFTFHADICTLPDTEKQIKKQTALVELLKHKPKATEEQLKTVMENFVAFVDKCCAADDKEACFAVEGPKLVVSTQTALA

A further test concerns the target Caspase-6 (Homo sapiens, UniProt P55212). The test is described as follows: inhibition of CASP6 peptide cleavage – biochemical, VEID-R110 fluorescence, cherry-pick, dose response (AID 720632).
The next test addresses Caspase-7 (Homo sapiens, UniProt P55210). As to the kind of experiment: caspase-7 enzyme inhibition, selectivity check – biochemical, DEVD-R110 fluorescence, cherry-pick, selectivity assay for caspase-6 inhibitor project, dose response (AID 743295). The format is functional.
Another test deals with Caspase-8 (Homo sapiens, UniProt Q14790). As to the kind of experiment: inhibitors of purified CASP8 protease – biochemical, Z-IETD-R110 fluorescence, cherry-picked samples, selectivity assay for caspase-6 inhibitor project, dose response (AID 743294).
Caspase-8, sequence (Q14790 217-374 limits assumed): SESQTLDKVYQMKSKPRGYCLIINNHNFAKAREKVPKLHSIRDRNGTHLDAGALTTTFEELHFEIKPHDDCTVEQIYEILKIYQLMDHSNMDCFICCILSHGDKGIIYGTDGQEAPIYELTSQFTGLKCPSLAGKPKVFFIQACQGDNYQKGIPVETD
Caspase-8, sequence (Q14790 385-479 limits assumed): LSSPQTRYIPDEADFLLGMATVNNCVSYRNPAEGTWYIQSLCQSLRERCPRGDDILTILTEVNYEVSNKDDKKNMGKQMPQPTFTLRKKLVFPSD
The next test has as its target T2, Caspase-3 (Homo sapiens, UniProt P42574).
T2 sequence (P42574 whole entry): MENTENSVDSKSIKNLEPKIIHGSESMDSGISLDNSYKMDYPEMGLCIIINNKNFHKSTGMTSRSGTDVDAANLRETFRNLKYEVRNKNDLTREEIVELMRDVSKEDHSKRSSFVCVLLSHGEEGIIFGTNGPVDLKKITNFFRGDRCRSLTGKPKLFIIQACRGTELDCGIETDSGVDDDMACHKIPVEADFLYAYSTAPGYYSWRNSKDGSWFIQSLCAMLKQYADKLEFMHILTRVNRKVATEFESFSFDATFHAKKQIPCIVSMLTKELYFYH
The test is described as follows: human caspase-3 protease activity blockade – biochemical, fluorescence, cherry-picked samples, selectivity assay for caspase-6 allosteric inhibitor project, dose response (AID 743291).

Test [7] relates to HEK293. As to the kind of experiment: PMA/Ionomycin induced NF-kB luciferase assay in 293- NF-kB-Luc stable cells. [Related pubchem assays: 1299, 1270, 1295, 1375, 1287, 1281, 1293, 1291, 1289, 1280, 465, 1364, 1282, 1372, 1365, 1370, 1367, 1366, 1269, 1373, 1292, 1290, 1302, 1371, 1283, 1271, 1294, 1374, 1368, 1369 ]. Type of test: functional, cell-based. Conditions: Homo sapiens.

Test [8] has as its target Luciferin 4-monooxygenase (Photinus pyralis, UniProt P08659). As to the kind of experiment: In vitro luciferase assay using purified luciferase. [Related pubchem assays: 1299, 1270, 1295, 1375, 1287, 1281, 1293, 1291, 1289, 1280, 465, 1364, 1282, 1372, 1365, 1370, 1367, 1366, 1266, 1373, 1292, 1290, 1302, 1371, 1283, 1271, 1294, 1374, 1368, 1369 ].
Test [9] concerns HEK293. The test is described as follows: Cytotoxicity assay in HEK293 cells. [Related pubchem assays (depositor defined):AID1266, AID1269, AID1270, AID1271, AID1280, AID1281, AID1282, AID1283, AID1287, AID1289, AID1290, AID1291, AID1292, AID1293, AID1294, AID1295, AID1299, AID1302, AID1364, AID1365, AID1366, AID1367, AID1369, AID1370, AID1371, AID1372, AID1373, AID1374, AID1375, AID1384 …. The format is functional, cell-based. Conditions: Homo sapiens.

Test [10] concerns HEK293. The test is described as follows: EBV LMP1 TES2 canonical NF-kB signalling blockers – cell-based, HEK293, luciferase, cherry-pick, dose response (AID 588343). Conditions: Homo sapiens. Type of test: functional.
A further test has as its system Vero. As to the kind of experiment: host cell viability loss, Vero E6 – synthesized analogs, cytotoxicity control for West Nile virus antiviral project, SAR follow-up (AID 2244). To be noted: Chlorocebus sabaeus. The format is functional.

Caspase-6, sequence (P55212 24-179 limits assumed): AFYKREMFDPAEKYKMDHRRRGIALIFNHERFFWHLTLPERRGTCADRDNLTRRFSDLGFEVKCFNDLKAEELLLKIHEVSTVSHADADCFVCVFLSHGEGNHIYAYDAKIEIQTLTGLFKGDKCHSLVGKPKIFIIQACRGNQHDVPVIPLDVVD
Caspase-6, sequence (P55212 194-293 limits assumed): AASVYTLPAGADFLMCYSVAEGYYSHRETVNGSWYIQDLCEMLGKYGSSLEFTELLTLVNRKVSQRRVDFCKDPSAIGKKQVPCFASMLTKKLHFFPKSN
Large T antigen, sequence (P03070 whole entry): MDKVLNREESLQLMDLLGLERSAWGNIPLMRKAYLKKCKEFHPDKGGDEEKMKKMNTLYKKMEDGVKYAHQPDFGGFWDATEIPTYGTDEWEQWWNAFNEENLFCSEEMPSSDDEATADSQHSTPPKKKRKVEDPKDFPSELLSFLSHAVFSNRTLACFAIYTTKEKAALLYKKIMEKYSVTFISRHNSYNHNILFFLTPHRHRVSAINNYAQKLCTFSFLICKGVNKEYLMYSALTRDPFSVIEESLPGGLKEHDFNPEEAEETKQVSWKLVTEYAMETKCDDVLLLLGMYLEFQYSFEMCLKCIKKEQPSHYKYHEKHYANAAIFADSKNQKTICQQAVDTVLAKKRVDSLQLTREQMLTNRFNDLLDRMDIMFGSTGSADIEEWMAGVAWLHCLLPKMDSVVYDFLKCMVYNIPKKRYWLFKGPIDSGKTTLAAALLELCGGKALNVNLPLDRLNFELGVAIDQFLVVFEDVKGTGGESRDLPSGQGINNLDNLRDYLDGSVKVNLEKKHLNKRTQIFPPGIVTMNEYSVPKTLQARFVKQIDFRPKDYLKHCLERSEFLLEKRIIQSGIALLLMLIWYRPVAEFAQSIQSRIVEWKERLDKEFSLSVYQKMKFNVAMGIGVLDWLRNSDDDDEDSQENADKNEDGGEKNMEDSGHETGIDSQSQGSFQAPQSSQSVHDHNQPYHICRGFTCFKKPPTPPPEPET
Caspase-7, sequence (P55210 24-198 limits assumed): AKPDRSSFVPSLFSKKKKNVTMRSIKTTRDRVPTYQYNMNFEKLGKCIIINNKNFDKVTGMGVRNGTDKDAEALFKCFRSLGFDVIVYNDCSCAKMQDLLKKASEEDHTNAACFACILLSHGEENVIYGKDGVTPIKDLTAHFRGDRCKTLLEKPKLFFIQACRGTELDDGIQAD
Caspase-7, sequence (P55210 207-303 limits assumed): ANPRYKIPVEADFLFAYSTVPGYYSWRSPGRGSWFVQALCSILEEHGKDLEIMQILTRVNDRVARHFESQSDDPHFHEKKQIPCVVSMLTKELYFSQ
Luciferin 4-monooxygenase, sequence (P08659 whole entry): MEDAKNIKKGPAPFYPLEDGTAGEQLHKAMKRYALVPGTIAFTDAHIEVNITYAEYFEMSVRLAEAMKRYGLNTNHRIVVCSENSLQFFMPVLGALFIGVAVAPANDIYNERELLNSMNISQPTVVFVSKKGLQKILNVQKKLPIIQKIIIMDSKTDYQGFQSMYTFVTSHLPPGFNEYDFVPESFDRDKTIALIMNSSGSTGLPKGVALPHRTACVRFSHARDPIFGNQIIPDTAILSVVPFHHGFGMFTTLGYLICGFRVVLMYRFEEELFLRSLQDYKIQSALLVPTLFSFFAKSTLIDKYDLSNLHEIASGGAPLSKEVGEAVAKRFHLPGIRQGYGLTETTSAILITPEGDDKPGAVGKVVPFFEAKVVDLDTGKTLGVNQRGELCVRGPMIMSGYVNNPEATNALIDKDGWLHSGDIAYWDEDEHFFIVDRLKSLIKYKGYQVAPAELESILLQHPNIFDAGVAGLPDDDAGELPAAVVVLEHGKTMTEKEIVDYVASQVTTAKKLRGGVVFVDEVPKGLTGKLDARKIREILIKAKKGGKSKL

By AC50 is commonly meant the concentration at which the activity in the assay is half-maximal. Turning to `CN1CCc2ccc(NC(=O)c3ccc(C(F)(F)F)cc3)cc2C1`, the AC50 in test [1] is 90.7 µM (active).
By IC50 is commonly meant the point on the concentration scale where inhibition reaches its midpoint. For the compound `O=C(NC(=S)Nc1sc2c(c1C(=O)O)CCCC2)c1ccccc1`, the IC50 at Tumor necrosis factor is 15.5 µM (active); in test [2], 14.4 µM (active); in [3], 17.3 µM (active); in the test on HEK293 [4], > 20 µM (inactive).
On to `O=c1oc2ccccc2c2oc3cc(O)c(O)cc3c12`, for which the IC50 on Large T antigen was 6.52 µM (active); in test [5], 6.69 µM (active); in test [6], 3.52 µM (active); at Albumin, > 94.2 µM (inactive). Also, the AC50 on Caspase-6 was 4.48 µM (active); at Caspase-7, 59.8 µM (active); at Caspase-8, > 70 µM (inactive); on Caspase-3 it was 22.1 µM (active).
What is called EC50 is the midpoint of the concentration-response curve. For the compound `COc1cc(OC)cc(-c2cc3nc(C)c(CCC(=O)O)c(C)n3n2)c1`, the EC50 in the test on HEK293 [7] was 4.19 µM (not active); in test [8] it was > 8 µM (not active); with HEK293 [9], > 8 µM (inactive). The AC50 in the test with HEK293 [10] was 0.719 µM (active).
For orientation: CC50 means the concentration that lowers cell viability or growth by half. For the compound `O=C(Nc1nc(-c2ccc(Cl)cc2)cs1)c1ccc(I)cc1`, in the test on Vero, the CC50 is > 40 µM (active).
